Data set [1] is described as follows: Solubility as noted in the SAR discussion. In kind it is physicochemical. The settings on record: compounds containing Br.
The next data set deals with T1, human TGR5 (Homo sapiens, UniProt Q8TDU6).
T1 sequence (Q8TDU6 1-330): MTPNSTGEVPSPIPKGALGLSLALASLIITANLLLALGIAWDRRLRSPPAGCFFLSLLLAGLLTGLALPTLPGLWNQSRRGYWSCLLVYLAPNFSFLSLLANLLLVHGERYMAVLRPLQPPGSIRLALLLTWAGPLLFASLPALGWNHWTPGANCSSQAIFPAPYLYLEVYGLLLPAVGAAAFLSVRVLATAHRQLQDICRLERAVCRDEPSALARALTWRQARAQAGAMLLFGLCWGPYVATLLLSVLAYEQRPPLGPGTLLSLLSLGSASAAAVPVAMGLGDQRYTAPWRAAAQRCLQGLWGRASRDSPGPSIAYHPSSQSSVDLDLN
Nature of the data set: In vitro TGR5 reporter gene assay (hTGR5/CRE/HEK293). For orientation: Reporter assays use an easily measured gene product as a stand-in for the process of interest.

In another data set the target is T2, mouse TGR5 (Mus musculus, UniProt Q80SS6).
T2 sequence (Q80SS6 1-329): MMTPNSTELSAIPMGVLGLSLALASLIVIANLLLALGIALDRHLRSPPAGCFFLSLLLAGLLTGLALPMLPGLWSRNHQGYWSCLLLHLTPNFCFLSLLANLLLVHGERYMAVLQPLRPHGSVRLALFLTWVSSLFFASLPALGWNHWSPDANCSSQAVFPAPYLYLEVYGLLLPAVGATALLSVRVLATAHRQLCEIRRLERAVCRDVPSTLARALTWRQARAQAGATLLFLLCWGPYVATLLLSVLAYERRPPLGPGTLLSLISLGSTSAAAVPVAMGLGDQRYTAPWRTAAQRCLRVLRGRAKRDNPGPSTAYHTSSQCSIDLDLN
Nature of the data set: In vitro TGR5 reporter gene assay (mTGR5/CRE/HEK293).

A short description of data set [2]: Caco-2 permeability determination. In kind it is in vitro ADME. The settings on record: human. The method, then:
(§1) Caco-2 permeability determination. Caco-2 permeability determination was carried out […]
(§2) Caco-2 cells were obtained from the ATCC (Cat#HTB-37) and maintained in Dulbecco’s modified Eagle’s Medium containing 10% fetal bovine serum, 1% glutamine, 1% nonessential amino acids, 100 μg/mL streptomycin, and 100 U/mL penicillin.
(§3) CO2 and 90% relative humidity environment. Caco-2 cells were passaged every 7 days at a ratio of 1:10. Cells were used between passages 30 and 40. After 21 days of culture, the integrity of the cell monolayer was verified by measuring the transepithelial electrical […]
(§4) Drug transport from the apical side to the basolateral side (A-B) and from the basolateral side to the apical side was measured simultaneously under the same condition.
(§5) Propranolol and atenolol were used as the […] control, respectively.
(§6) Digoxin was used as the positive control for Pgp-mediated drug efflux. In brief, the method was as follows. After washing the monolayer with HBSS three times, the compounds were diluted and added to the appropriate well (pH 6.8 for apical side and pH […]
(§7) 7.4 for basolateral side). […] Samples were […]
(§8) collected from the donor side at 5 and 95 min, and from the receiver side at 35 and 95 min post-incubation. The concentration of samples was measured by LC-MS/MS. The Papp was calculated from the following equation:
(§9) Papp = (VA/(SA×T))×([drug]acceptor/ [durg]initial donor )
(§10) Where VA is the volume of the acceptor well, SA is the surface area of the membrane, T is the total transport time, [drug]acceptor is the drug level at the acceptor side, and [drug]initial donor is the drug level at the donor side at T = 0. […]
On the technique in general: Passage across Caco-2 layers is used to estimate intestinal permeability.

The subject of data set [3] is ICR mice. Nature of the data set: Gallbladder filling assay in ICR mice. In kind it is in vivo, mouse. The following applies: once a day oral dose 50 mg/kg. The method, then:
Figure 4 (A) Relative gallbladder area and (B) relative bile weight after once a day oral dose. After the OGTT experiment, mice were refed for 3 h, the gallbladder was removed and the area measured using a vernier caliper. The relative gallbladder area was calculated from the length multiplied by the width of the gallbladder. Bile weight was measured using analytical balances. *p < 0.05; **p < 0.01; ***p < 0.001. Error bar indicates SEM.
Caco-2 permeability determination. Caco-2 permeability determination was carried out according to (Eur. J. Med. Chem. 2014, 82, 1-15). […]
Drug transport from the apical side to the basolateral side (A-B) and from the basolateral side to the apical side was measured simultaneously under the same condition. […]
Digoxin was used as the positive control for Pgp-mediated drug efflux. […] The concentration of samples was measured by LC-MS/MS. The Papp was calculated from the following equation: […]
(§11) mice (n = 7-8) 90 min prior to the oral glucose load (4 g/kg). Blood glucose levels were measured via blood drops obtained by clipping the tail of the mice using an Accu-Chek Advantage II Glucose Monitor (Roche, Indianapolis, IN, USA) before compound dosing and 0, 15, 30, 60, and 120 min after the glucose load. The area under the concentration−time curve from 0 to 120 min (AUC0−120 min, Glu) of blood glucose after the glucose load was calculated by the trapezoidal rule. […]

The nature of data set [4]: In vitro microsomal stability assay (human). The settings on record: human liver microsomes. In kind it is in vitro ADME. The method, then: (§12) Acetonitrile (containing 0.1% formic acid; C (MeOH with 1% TFA). Flow rate: 0.6 […]
(§13) Data system: Masslynx 4.1 (Waters).
(§14) In vitro microsomal stability assay. The test compound was dissolved in DMSO and diluted to the desired concentration with DMSO and 0.1% aqueous BSA. Liver microsomes were incubated in a 96-well plate containing 0.1 M Tris buffer (pH 7.4), 0.33 mg/mL microsomal protein, 0.1 mM test compound, 5.0 mM MgCl2, 0.005% BSA, and 1.0 mM NADPH. Incubations were conducted at 37 °C. An aliquot was removed at each time point and the enzymatic reaction was stopped by protein precipitation in MeOH. The loss of the test compound was determined by LC-MS/MS. The intrinsic clearance (CLint, mL/min/g) was calculated from the following equation: […]
(§15) Where k (min-1) is the slope of the line of the natural log of the percentage parent remaining versus the time of incubation; P is the microsomal protein concentration
In general terms: Liver microsomes are vesicles of endoplasmic reticulum, rich in cytochrome P450 enzymes.

Data set [5] can be described thus: In vitro microsomal stability assay (mice). In kind it is in vitro ADME. The following applies: mice liver microsomes. The method, then:
as §12, §13, §14, §15

The test system of a further data set is Caco-2 cells. Nature of the data set: Caco-2 permeability determination. In kind it is in vitro ADME. The method, then:
as §1, §2, §3, §4, §5, §6, §7, §8, §9, §10

Data set [6] in a line: Solubility in water determined by LC-MS/MS. It is filed as physicochemical.
Data set [7] concerns ICR mice. Nature of the data set: Oral glucose tolerance test (OGTT) in ICR mice. It is filed as in vivo, mouse. The method, then: Blood glucose levels were measured berefore and after glucose loading. *p < 0.05, **p < 0.01 vs. control. Error bar indicateds SEM (standard error of the mean). […]
Oral glucose tolerance test (OGTT) and gallbladder filling assay in ICR mice. 100 […]
as §11

For the next data set, the system named is ob/ob mice. Nature of the data set: Hypoglycemic effect of 3 in diabetic model ob/ob mice. It is filed as in vivo, mouse.
The subject of data set [8] is ICR mice. Set-up: method as in PMID 25710631. The settings on record: normal mice (ICR mice); cited from earlier work.
[9] abbreviates: Caco-2, apical to basolateral side.
[10] abbreviates: Caco-2, basolateral to apical side.

The text below walks through data of article PMC4919643, “Intestinally-targeted TGR5 agonists equipped with quaternary ammonium have an improved hypoglycemic effect and reduced gallbladder filling effect” (Scientific Reports, 2016).

In brackets after ≈: the same amount, converted by molar mass.

What is called melting point is the temperature of the solid-liquid transition. Broadly, the EC50 is the concentration giving half of the maximal effect. `O=C(c1sccc1Oc1cc(Cl)ccc1Br)N1CCN(C2CC2)c2ccccc21` [Compound 9c] returned a melting point of 107 °C. The “solubility (in words)” value in data set [1] is on record as “poor solubility”. The same molecule registered an EC50 on human TGR5 of 0.58 ± 0.11 nM. In addition, the concentration for a half-maximal effect (EC50) on mouse TGR5 came out at 3 ± 0.69 nM.
In general, efflux ratio refers to the permeability from basolateral to apical divided by that in the opposite direction, in the common usage. As usually defined, the Papp A→B is the apparent permeability from the apical to the basolateral side of a cell layer. Low readings indicate poor permeation, high ones ready permeation. In general, Papp B→A refers to how fast a substance crosses the layer from the basolateral side. `O=C(c1sccc1Oc1cc(Cl)ccc1Cl)N1CCN(C2CC2)c2ccccc21` [Compound 9a] came in with a melting point of 120 °C. Besides, the efflux ratio at 95 min in data set [2] (Caco-2) was found to be 0.8. The molecule further registered a Papp A→B at 95 min in data set [2] (setting [9]) of 0.55 ×10⁻⁶ cm/s. In [2] (setting [10]), this molecule gave a Papp B→A at 95 min of 0.43 ×10⁻⁶ cm/s. Further, the “increase of gallbladder area vs control” value with ICR mice [3] came to 210%. Further, the “liver microsomal clearance (CLint)” value in [4] amounted to 1631 mL/min/g. Further, in [5], the “liver microsomal clearance (CLint)” value came to 1390 mL/min/g. Moreover, the EC50 at human TGR5 was found to be 0.55 nM. For the same molecule, the 50% effective concentration (EC50) on mouse TGR5 came out at 2.8 nM.
Molecule `CN1CCN(C(=O)c2sccc2Oc2ccc(C(F)(F)F)cc2)c2ccccc21` [Compound 9h] returned a melting point of 88 °C. The EC50 at human TGR5 stood at 76 ± 9.8 nM.
One may read the solubility as the dissolved amount per volume that the medium holds. As for `O=C(c1cnccc1Oc1cc(Cl)ccc1Cl)N1CCN(C2CC2)c2ccccc21` [Compound 2, reference compound], in the data set on Caco-2 cells (setting [9]), the “Papp A to B” value is reported as 6.75 10^−6 cm/s. The “Papp B to A” value in the data set on Caco-2 cells (setting [10]) is on record as 5.58 10^−6 cm/s. For the same molecule, in data set [6], the concentration in solution (solubility) came to 0.441 µg/mL (≈ 1 µM). In addition, the “AUC0–120 min of blood glucose, signed change vs control (OGTT, Fig. 3B)” value in the data set with ICR mice [7] (50 mg/kg p.o.) is on record as -16%. For the same molecule, the “decrease of blood glucose AUC vs control (OGTT)” value in the data set with ICR mice [7] (50 mg/kg p.o. 1.5 h before glucose 4 g/kg) turned out to be 16%.
`O=C(CCc1cc(Cl)c(Oc2ccncc2C(=O)N2CCN(C3CC3)c3ccccc32)cc1Cl)NCCOCCOCCOCCOCCOCCOCCOCCOCCNC(=O)CCc1cc(Cl)c(Oc2ccncc2C(=O)N2CCN(C3CC3)c3ccccc32)cc1Cl` [Compound 3]: in the data set on ob/ob mice, the hypoglycemic effect result is “no significant effect”. Also, the hypoglycemic efficacy entry in the data set on ICR mice [8] is recorded as “moderate”.
